10 compounds from the NIST ThermoML archive (doi:10.1016/j.jct.2012.01.019) can be followed below.

Numbers after ± are expanded uncertainties.

The data set in a line: activity coefficient (dimensionless); of the first substance listed, at infinite dilution; xn = mol fraction of the nth substance listed. Conditions: 101 kPa, Liquid, Chromatography, x1 = 0.

On to `CCCC=O` [butanal] + COCC[N+]1(C)CCCCC1.O=S(=O)([N-]S(=O)(=O)C(F)(F)F)C(F)(F)F, for which the activity coefficient runs as follows: (318.15 K) 0.779 ± 0.051; (328.15 K) 0.791 ± 0.051; (338.15 K) 0.805 ± 0.052; (348.15 K) 0.817 ± 0.053; (358.15 K) 0.828 ± 0.053; (368.15 K) 0.84 ± 0.054.
As to `C1CCCCCC1` [cycloheptane] + COCC[N+]1(C)CCCCC1.O=S(=O)([N-]S(=O)(=O)C(F)(F)F)C(F)(F)F, the activity coefficient is 13.3 ± 0.6 (318.15 K); 12.5 ± 0.6 (328.15 K); 11.7 ± 0.5 (338.15 K); 10.9 ± 0.5 (348.15 K); 10.2 ± 0.5 (358.15 K); 9.64 ± 0.44 (368.15 K).
Regarding `C1CCCCC1` [cyclohexane] + COCC[N+]1(C)CCCCC1.O=S(=O)([N-]S(=O)(=O)C(F)(F)F)C(F)(F)F, the activity coefficient (318.15 K) came to 9.72 ± 0.45; the activity coefficient (328.15 K) is 9.23 ± 0.42; the activity coefficient (338.15 K) stood at 8.71 ± 0.4; the activity coefficient (348.15 K) stood at 8.24 ± 0.38; the activity coefficient (358.15 K) is 7.81 ± 0.36; the activity coefficient (368.15 K) is 7.48 ± 0.34.
With `C1=CCCCC1` [cyclohexene] + COCC[N+]1(C)CCCCC1.O=S(=O)([N-]S(=O)(=O)C(F)(F)F)C(F)(F)F, the activity coefficient was 5.41 ± 0.37 (318.15 K); 5.21 ± 0.36 (328.15 K); 5 ± 0.34 (338.15 K); 4.83 ± 0.33 (348.15 K); 4.67 ± 0.32 (358.15 K); 4.53 ± 0.31 (368.15 K).
`C1CCCCCCC1` [cyclooctane] + COCC[N+]1(C)CCCCC1.O=S(=O)([N-]S(=O)(=O)C(F)(F)F)C(F)(F)F: the activity coefficient was 18 ± 1.2 (318.15 K); 16.6 ± 1.1 (328.15 K); 15.4 ± 1.1 (338.15 K); 14.3 ± 1 (348.15 K); 13.2 ± 0.9 (358.15 K); 12.4 ± 0.8 (368.15 K).
For the compound `C1CCCC1` [cyclopentane] + COCC[N+]1(C)CCCCC1.O=S(=O)([N-]S(=O)(=O)C(F)(F)F)C(F)(F)F, the activity coefficient by setting is: (318.15 K) 6.73 ± 0.31; (328.15 K) 6.42 ± 0.29; (338.15 K) 6.13 ± 0.28; (348.15 K) 5.86 ± 0.27; (358.15 K) 5.63 ± 0.26; (368.15 K) 5.45 ± 0.25.
As for `CCCCCCCCCC` [decane] + COCC[N+]1(C)CCCCC1.O=S(=O)([N-]S(=O)(=O)C(F)(F)F)C(F)(F)F, the activity coefficient runs as follows: (318.15 K) 73.9 ± 3.5; (328.15 K) 66.5 ± 3.1; (338.15 K) 59.5 ± 2.8; (348.15 K) 53.7 ± 2.5; (358.15 K) 48.8 ± 2.3; (368.15 K) 45 ± 2.1.
For `CCOCC` [diethyl ether] + COCC[N+]1(C)CCCCC1.O=S(=O)([N-]S(=O)(=O)C(F)(F)F)C(F)(F)F, the activity coefficient stood at 2.6 ± 0.18 (318.15 K); 2.59 ± 0.18 (328.15 K); 2.58 ± 0.18 (338.15 K); 2.58 ± 0.18 (348.15 K); 2.57 ± 0.17 (358.15 K); 2.56 ± 0.17 (368.15 K).
With `CC(C)OC(C)C` [diisopropyl ether] + COCC[N+]1(C)CCCCC1.O=S(=O)([N-]S(=O)(=O)C(F)(F)F)C(F)(F)F, the activity coefficient is, setting by setting: (318.15 K) 6.13 ± 0.42; (328.15 K) 6.03 ± 0.41; (338.15 K) 5.94 ± 0.4; (348.15 K) 5.84 ± 0.4; (358.15 K) 5.76 ± 0.39; (368.15 K) 5.69 ± 0.39.
Take `CCCOCCC` [dipropyl ether] + COCC[N+]1(C)CCCCC1.O=S(=O)([N-]S(=O)(=O)C(F)(F)F)C(F)(F)F: the activity coefficient (318.15 K) stood at 6.45 ± 0.44; the activity coefficient (328.15 K) was 6.28 ± 0.43; the activity coefficient (338.15 K) stood at 6.13 ± 0.42; the activity coefficient (348.15 K) worked out at 5.98 ± 0.41; the activity coefficient (358.15 K) is 5.86 ± 0.4; the activity coefficient (368.15 K) is 5.75 ± 0.39.
